Test results taken from PMC5059489, “Mechanistic evaluation and transcriptional signature of a glutathione S-transferase omega 1 inhibitor” (Nature Communications, 2016).
Values joined by “and” are separate entries in the source; they are usually repeats but may differ in a detail not shown here. Equal entries are not always repeated.

How the values were obtained:
[1] = target: T1, endogenous GSTO1 (Homo sapiens, UniProt P78417); test: In-gel fluorescence competitive CMFDA binding assay, endogenous GSTO1 in HCT116; settings: 10 µM; inhibition of CMFDA binding, HCT116
T1 sequence (P78417 1-241): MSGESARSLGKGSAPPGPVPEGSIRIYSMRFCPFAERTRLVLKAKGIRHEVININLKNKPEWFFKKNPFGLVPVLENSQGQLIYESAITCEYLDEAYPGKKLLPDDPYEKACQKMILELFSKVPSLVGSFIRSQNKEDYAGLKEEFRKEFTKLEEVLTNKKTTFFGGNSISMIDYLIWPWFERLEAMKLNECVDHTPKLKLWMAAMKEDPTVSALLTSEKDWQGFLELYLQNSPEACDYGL
Excerpt: (§1) Primary screening of GSTO inhibitors was based on competitive inhibition of CMFDA binding to endogenous GSTO. Briefly, HCT116^p53+/+ cells (4 × 10^4 per well) were coated in a 12-well plate. […] Cells were then washed with PBS and lysed using Cell Lytic M buffer (Sigma). […] Gels were immediately scanned on a Typhoon variable mode imager (Amersham Bioscience). Quantification of fluorescent band intensity was done using Image Quant 5.2 software.

[2] = system: HCT116p53+/+ cell; test: MTT cell proliferation at single concentration; type: cell-based, human
Procedure: Cell proliferation was assessed by a MTT assay. Cancer cells were seeded in 96-well microtitre plates and, after overnight attachment, treated with GSTO1 inhibitors. After 72 h, MTT solution (3 mg ml^−1; 20 μl) was added to each well and cells were incubated for 3 h at 37 °C. After incubation, media from each well was removed and the dark blue formazan crystals formed by live cells were dissolved in DMSO (150 μl per well). The absorbance intensity was measured at 570 nm on a microplate reader (Molecular Devices, Sunnyvale, CA, USA). Cell viability after 24 h treatment was assessed using ApoTox-Glo triplex assay (Promega) according to the manufacturer's protocol. At least three independent dose–response experiments with each concentration tested in triplicate were performed for each cell line.

[3] = target: T2, GSTO1 (Homo sapiens, UniProt P78417); test: In-gel fluorescence competitive CMFDA binding assay, recombinant GSTO1; settings: inhibition of CMFDA binding
T2 sequence (P78417 1-241): T1 sequence (P78417 1-241)
Excerpt: as §1

[4] = target: T2, GSTO1; test: GSTO1 substrate assay (reduction of 4-NPG); settings: for IC50: read-out: GSTO substrate assay IC50, cluster screening tables
Procedure: For activity screening, we adapted a GSTO1 substrate assay that relies on the quantification of the reduction of S-(4-nitrophenacyl)glutathione (4-NPG), a GSTO1-specific substrate[17], using recombinant human GSTO1 in a high-throughput screening format.
Enzyme activity was measured by monitoring the reduction of 4-NPG to 4-nitroacetophenone by GSTO1.

Compound | GSTO binding assay (% Inhibition at 10 µM) Endogenous [1] | % Inhibition of HCT116p53+/+ cell proliferation at 10 µM [2] | GSTO binding assay (% Inhibition at 10 µM) Recombinant [3] | GSTO substrate assay % Inhibition at 10 µM [4] | IC50 [4]
O=C(CCl)Nc1ccc(Cl)cc1[N+](=O)[O-] [C1-2] | 66.2% | 7.4% | 54.1% | 100.9% | 1220 nM
O=C(CCl)Nc1cc([N+](=O)[O-])ccc1Nc1ccc(F)cc1 [C1-4] | 31.8% | 80.6% | 81.5% | 92.5% | –
C=CCSc1ccccc1NC(=O)CCl [C1-5] | 22.9% | -3.8% and -2.6% | 52.9% | 96.3% | –
O=C(CCl)Nc1ccc(Oc2ccc(Br)cc2)cc1 [C1-7] | 56.6% | 29.6% | 75.6% | 77.7% | 162 nM
CC(=O)c1cc2c(cc1NC(=O)CCl)OCO2 [C1-9] | 39.3% | -1.2% | 56.5% | 12.5% | –
COc1cc(NC(=O)CCl)c(Cl)cc1C(=O)O [C1-10] | 49.7% | 19.7% | 49.1% | 81.7% | –
O=C(CCl)Nc1cc2c(cc1Cl)OCCCO2 [C1-11] | 58.6% | 63.4% and 65.6% | 55.2% | 77.7% | 1160 nM
O=C(CCl)Nc1cc2c(cc1Cl)C(=O)c1ccccc1C2=O [C1-12] | 40.1% | 85% | 26.5% | 10.4% | –
O=C(CCl)Nc1ccccc1C(=O)NCc1ccco1 [C1-13] | 61.1% | 14.3% and 6.6% | 35.2% | 62.2% | –
Cc1cc(NC(=O)CCl)ccc1N1CCCC1 [C1-16] | 46.7% | 41.9% | 49.2% | 87.8% | –
O=C(CCl)Nc1cc(C(F)(F)F)ccc1N1CCCC1 [C1-17] | -9.5% | 94.8% and 91% | -4.1% | 88.5% | –
O=C(CCl)Nc1ccccc1N1CCCC1=O [C1-18] | 54.4% | 41.5% and 41.7% | 6.4% | 3.7% | –
CC1CCN(c2ccc(NC(=O)CCl)cc2)CC1 [C1-19] | 65.7% | 79.2% and 85.4% | 38.3% | 61.5% | –
CCN1CCN(c2ccc(NC(=O)CCl)cc2)CC1 [C1-20] | -15.1% | 43.7% and 39% | -8.5% | 66.9% | –
CC(=O)N1CCc2cc(NC(=O)CCl)ccc21 [C1-22] | 49.0% | 80.8% and 86% | 25.1% | 41.4% | –
Cc1cc(S(=O)(=O)N(C)C)cc(NC(=O)CCl)c1C [C1-26] | 48.9% | 13.2% | 51.4% | 31.1% | –
CCN1CCC(NC(=O)CCl)CC1 [C2-1] | 45.0% | 65.6% and 62.7% | -0.8% | 54.8% | –

Compound | GSTO binding assay (% Inhibition at 10 µM) Endogenous [1] | % Inhibition of HCT116p53+/+ cell proliferation at 10 µM [2] | GSTO binding assay (% Inhibition at 10 µM) Recombinant [3] | GSTO substrate assay % Inhibition at 10 µM [4] | IC50 [4]
O=C(CCl)NC1CCN(Cc2ccccc2)CC1 [C2-2] | 66.7% | 1.1% | 6.5% | 90.5% | –
Cc1c(C#N)c(NC(=O)CCl)n(-c2ccc(F)cc2)c1C [C2-3] | 47.0% | 49% | 37.8% | 61.5% | –
Cc1ccc(C)c(-n2nc(C)cc2NC(=O)CCl)c1 [C2-4] | 51.3% | 81.4% and 84.4% | 35.8% | 0.5% | –
O=C(CCl)Nc1cc(C2CC2)nn1-c1ccccc1 [C2-5] | 69.4% | -2.7% and -8.6% | 64.1% | 4.4% | –
N#Cc1cnn(-c2ccccc2)c1NC(=O)CCl [C2-6] | 25.2% | -17% and -9.7% | 36.8% | 84.5% | –
O=C(CCl)Nc1ccnn1Cc1cccc(Cl)c1 [C2-7] | 55.3% | 85.7% and 91% | 56.0% | 79.7% | 598 nM
CCOC(=O)c1cc(C(C)C)sc1NC(=O)CCl [C2-8] | 51.7% | 4.5% and 0.8% | 39.2% | 3.8% | –
CCOC(=O)c1c(NC(=O)CCl)sc(Cl)c1-c1ccccc1 [C2-9] | 59.2% | 16.3% | 50.0% | 13.9% | –
CCOC(=O)c1c(NC(=O)CCl)sc(Cc2ccc3c(c2)OCO3)c1C [C2-13] | 41.3% | 38.1% | 48.1% | 25.9% | –
CCOC(=O)c1c(NC(=O)CCl)sc(C(=O)Nc2ccc(C)cc2C)c1C [C2-14] | 58.2% | 6.3% | 57.9% | -7.0% | –
CCOC(=O)c1c(NC(=O)CCl)sc2c1CCN(CC)C2 [C2-17] | 24.8% | 85.2% and 94.5% | 51.5% | 77.2% | –
Cc1c(NC(=O)c2c(NC(=O)CCl)sc3c2CCCC3)c(=O)n(-c2ccccc2)n1C [C2-19] | 58.6% | 52.7% and 40.5% | 51.8% | 1.2% | –
COc1ccc(-c2csc(NC(=O)CCl)n2)c(O)c1 [C2-24] | 62.1% | 22.9% and 19.2% | 82.4% | 34.0% | –
O=C(CCl)N1CCN(S(=O)(=O)c2ccc3c(c2)OCCO3)CC1 [C5-15] | – | 82.7% and 87.3% | 62.4% | 63.7% | 262 nM
CN(C)S(=O)(=O)c1ccc2c(c1)CCCN2C(=O)CCl [C5-18] | – | 91.6% and 91.4% | 69.7% | 72.7% | 164 nM
O=C(CCl)N1CCc2cc([N+](=O)[O-])ccc21 [C5-19] | – | 84.6% and 75.2% | 72.2% | 40.0% | –
CC1Cc2cc(S(N)(=O)=O)ccc2N1C(=O)CCl (stereo not shown) [C5-20] | – | 80.5% and 89.8% | 68.1% | 61.0% | 2290 nM
